pKi: −log10 of the molar value. Entries after “also recorded” stand apart in the source; their conditions may differ.
Experiments:
[1] = molecular target: Cathepsin S (Homo sapiens, UniProt P25774); conditions: at 1 × 10^−6 M; cited from earlier work
[2] = molecular target: Cathepsin B (Homo sapiens, UniProt P07858); conditions: cited from earlier work
[3] = molecular target: Cathepsin C (Homo sapiens, UniProt P53634); conditions: at 1 × 10^−6 M; cited from earlier work
[4] = molecular target: T1, Cathepsin K (Homo sapiens, UniProt P43235); conditions: cited from earlier work
T1 sequence (P43235 115-329): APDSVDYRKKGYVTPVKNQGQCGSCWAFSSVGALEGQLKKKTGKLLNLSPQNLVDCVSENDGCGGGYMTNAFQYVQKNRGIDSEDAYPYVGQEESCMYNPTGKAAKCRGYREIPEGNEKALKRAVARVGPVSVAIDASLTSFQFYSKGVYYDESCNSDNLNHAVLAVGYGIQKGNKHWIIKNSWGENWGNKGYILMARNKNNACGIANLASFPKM

[5] = molecular target: Cathepsin L (Homo sapiens, UniProt P07711); conditions: cited from earlier work
[6] = molecular target: T2, Papain (Carica papaya, UniProt P00784); conditions: cited from earlier work
T2 sequence (P00784 134-345): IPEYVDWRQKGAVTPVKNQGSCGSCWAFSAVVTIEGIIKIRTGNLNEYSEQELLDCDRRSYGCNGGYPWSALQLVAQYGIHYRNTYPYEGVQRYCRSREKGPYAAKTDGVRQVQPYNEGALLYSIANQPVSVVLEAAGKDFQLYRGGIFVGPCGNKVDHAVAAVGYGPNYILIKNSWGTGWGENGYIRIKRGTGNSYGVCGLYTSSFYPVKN

[7] = tested on: rat model of human glomerular disease; conditions: cited from earlier work
[8] = molecular target: T3, cathepsin B (Mus musculus, UniProt P10605); assay: Cysteine protease active site labeling in mouse peritoneal macrophages: cathepsin B; format: cell-based; conditions: 10 μM
T3 construct: endogenous in cells; host or cells: thioglycolate-elicited mouse peritoneal macrophages
Description: (§1) FIG. 1. Cysteine protease inhibition profile by synthetic inhibitors in mouse peritoneal macrophages. [^125I]-Z-Tyr-Ala-CHN2-labeled mouse peritoneal macrophages were lysed and separated onto 12% SDS-PAGE to visualize labeled active cathepsins. Doses and inhibitors used were all indicated.
(§2) Mouse peritoneal macrophages were generated by injecting mice with thioglycolate as described in Shi et al. (2000) J. Exp. Med. 191:[…]. After 3-4 days of incubation, peritoneal microphages were washed out using Tris-EDTA buffers containing 6 mM EDTA (pH 8.0). Cells were then seeded onto 24-well plates in DMEM with 10% FBS till complete spread. After cells were attached to the plates, different doses of inhibitors were added. After 2-3 hours of incubation, cells were labeled with [^125I]-Z-Tyr-Ala-CHN2 overnight at 37° C. to detect intracellular active cysteine proteases. Cells were lysed into 1× reducing protein sample buffer and separated onto 12% SDS-PAGE.
(§3) First, the synthetic small molecule compounds were tested for their selectivity toward different forms of cathepsin. Mouse peritoneal macrophages were cultured in the presence of selective inhibitors and cysteine protease active site labeling probe [^125I]-Z-Tyr-Ala-CHN2 (Sukhova et al., supra). […] In contrast, other inhibitors used had no effect on cathepsin B activity. […] Therefore, these inhibitors can be utilized to test if the aforementioned cathepsins play roles in the breakdown of insulin receptor (IR) or IR turnover.

[9] = tested on: mouse 3T3-L1 cells; assay: Mouse 3T3-L1 preadipocyte adipogenesis, oil-red staining; format: cell-based; conditions: 15 μM
Description: FIG. 9. Effect of cathepsin L inhibitor during mouse 3T3-L1 preadipocyte differentiation. Mouse 3T3-L1 cells were induced for adipogenesis. CLIK 148 (10 μM) was […] at different time points (days) during adipogenesis. Cells were stained with oil-red at the end of differentiation.
Mouse preadipocytes were differentiated as described in Patel and Lane (2000) J. Biol. Chem. 275:17653-17660. In brief, mouse 3T3-L1 cells were cultured in DMEM containing 10% calf serum till confluence at 37° C. with 10% CO2. After additional two days maintenance in the same media, cells were differentiated by adding 0.5 mM methylisobutylxanthine, 1 μM dexmethasone, 1 μg/ml insulin, and 10% FBS for two days in the presence and absence of protease inhibitors. Culture media were replaced with DMEM containing 1 μg/ml insulin and 10% FBS. After day 4 the cells were fed every other day with 10% FBS in DMEM without insulin. By days 7-8, cells were fully differentiated.
Similar phenotypes were observed using mouse preadipocytes 3T3-L1 (ATCC, Manassas, Va.). Both active cathepsins L and S were found in differentiated adipocytes (FIG. 8, days 8-11). However, levels of both enzyme increased after the differentiation, a phenomenon different from that of human preadipoicytes. […] Cathepsin K antigen was detected in preadipocytes but not adipocytes nor insulin treated cells (FIG. 10).

[10] = molecular target: T4, cathepsin L (Mus musculus, UniProt P06797); assay: Cysteine protease active site labeling in mouse peritoneal macrophages: cathepsin L; format: cell-based; conditions: 10 μM, mouse peritoneal macrophages
T4 construct: endogenous in cells; host or cells: thioglycolate-elicited mouse peritoneal macrophages
Description: as §1, §2, §3

[11] = tested on: peroxisome proliferator-activated receptor-γ (PPAR-γ); assay: PPAR-γ levels in human preadipocytes, Western blot; format: cell-based; conditions: human preadipocytes differentiated with inhibitor, FIG. 5
Description: FIG. 5. Inhibition of cathepsin L blocked the expression of PPAR-γ. Human preadipocytes were used and Western blot analysis was performed as in FIG. 4 instead of using mouse anti-human PPAR-γ monoclonal antibodies as the primary antibodies.
(§4) Human preadipocytes were initially cultured in MSCGM medium (BioWhitaker) at 37° C. and 5% CO2 for 7 to 12 days with 3-4 changes of media till complete confluence. Non-induced cells were kept in adipogenesis maintenance media containing 0.01 mg/ml of insulin, 0.05 units/ml of penicillin, 0.05 μg/ml of streptomycin, and 10% fetal bovine serum. To induce adipogenesis, complete confluent cells were cultured in adipogenesis induction medium containing 1 μM dexamethasone, 0.2 mM indomethacin, 0.01 mg/ml insulin, 0.5 mM 3-isobutyl-1-methyl-xanthine, 0.05 units/ml of penicillin, 0.05 μg/ml of streptomycin, and 10% fetal bovine serum in the presence and absence of protease inhibitors for 3 days followed by three days of culture in maintenance media. After three cycles of induction and maintenance, cells were cultured in maintenance media for additional 7 days with two changes of fresh media.
(§5) To evaluate the cell differentiation levels affected by aforementioned inhibitors, the levels of transcription factors CCAAT/enhancer-binding protein-α (C/EBP-α) as well as peroxisome proliferator-activated receptor-γ (PPAR-γ) from cells treated with and without inhibitors were measured. Both C/EBP-α and PPAR-γ are important adipocyte determination factors. Wu et al. (1999) Mol. Cell. 3:151-158; Tanaka et al. (1997) EMBO J. 16:7432-7443; and Tontonoz et al. (1994) Cell 79:1147-1156.

[12] = tested on: insulin receptor β subunit; assay: Insulin receptor turnover in human preadipocytes, Western blot; format: cell-based; conditions: 10 μM, human preadipocytes
Description: FIG. 2. […] Human preadipocytes were incubated with and without inhibitors indicated at different doses, lysed, separated onto 7% SDS-PAGE, and probed with goat anti-human insulin receptor β-subunit polyclonal antibodies. Both mature β subunit and its precursor were indicated.
as §4
(§6) After differentiation, cells were collected, and lysed into 1×RIPA buffer. Protein concentrations were determined using Bio-Rad Dc protein assay system according to the manufacturer (Bio-Rad, Hercules, Calif.). Equal amount of proteins were separated on 7% SDS-PAGE for detecting IR and IGF-1R, 12% SDS-PAGE for detecting cathepsins S, K, and L antigens. Both IR and IGF-1R primary polyclonal antibodies were raised from goat and all cathepsin antibodies were polyclonal antibodies raised from rabbit. The corresponding HRP-conjugated secondary antibodies were used for detections.
To test which cathepsin is involved in the IR turnover, human preadipocytes (BioWhittaker, Walkersville, Md.) were induced to become adipocytes in the presence and absence of inhibitors. Differentiated adipocytes expressed more IR than controls as previously reported. Pederson et al. (2000) Biochem. Biophys. Res. Commun. 276:162-168. Cathepsin B inhibitor (CA 074, 10 μM) and catepsin S inhibitor (CLIK 060, 2 μM) had no effect on either IR turnover or differentiation (FIGS. 2). […] The same is true when the blot was tested with insulin like growth factor I receptor (IGF-IR) antibodies (FIG. 3).

[13] = tested on: CCAAT/enhancer-binding protein-α (C/EBP-α); assay: C/EBP-α levels in human preadipocytes, Western blot; format: cell-based; conditions: human preadipocytes differentiated with inhibitor, FIG. 4
Description: FIG. 4. Inhibition of cathepsin L blocked the expression of CCAAT/enhancer-binding protein. Human preadipocytes were differentiated as in FIG. 2. A 10% gel was used to perform Western blot analysis using goat anti-human C/EBP-α polyclonal antibodies and the blot was detected using the corresponding HRP-conjugated secondary antibodies.
as §4, §5

[14] = molecular target: T5, cathepsin K (Mus musculus, UniProt P55097); assay: Cysteine protease active site labeling in mouse peritoneal macrophages: cathepsin K; format: cell-based; conditions: 10 μM
T5 construct: endogenous in cells; host or cells: thioglycolate-elicited mouse peritoneal macrophages
T5 sequence (P55097 115-329): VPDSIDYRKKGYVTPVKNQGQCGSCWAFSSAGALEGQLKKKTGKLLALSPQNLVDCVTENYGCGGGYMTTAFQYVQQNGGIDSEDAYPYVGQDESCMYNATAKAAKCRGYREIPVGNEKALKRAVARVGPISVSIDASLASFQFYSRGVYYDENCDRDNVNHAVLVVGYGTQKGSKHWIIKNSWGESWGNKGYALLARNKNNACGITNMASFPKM
Description: as §1, §2, §3

[15] = tested on: human preadipocytes; assay: Human preadipocyte adipogenesis, oil-red staining; format: cell-based; conditions: 10 μM, human preadipocytes
Description: FIG. 6. Oil-red staining of human preadipocytes and adipocytes.
as §4
This hypothesis is further confirmed by oil-red staining of CLIK 148 or 195 treated preadipocytes (FIG. 6). In addition, inhibition of adiogenesis by these two inhibitors is dose dependent. Less than 50% of adipogenesis was blocked by 1 μM of such inhibitors. […] In contrast, 1 μM of CLIK 060, 1 or 10 μM of CA 074 had no effect on adipogenesis (data not shown). Therefore, these observations indicate that cathepsin L appears to play a more critical role than cathepsins S and K in adipogenesis by controlling insulin/IR complex turnover.

[16] = tested on: insulin like growth factor I receptor (IGF-IR); assay: IGF-IR levels in human preadipocytes, Western blot; format: cell-based; conditions: 10 μM
Description: FIG. 3. […] Cells were treated as in FIG. 2. Western blot analysis was performed using goat anti-human IGF-1R polyclonal antibodies.
as §4, §6
To test which cathepsin is involved in the IR turnover, human preadipocytes (BioWhittaker, Walkersville, Md.) were induced to become adipocytes in the presence and absence of inhibitors. Differentiated adipocytes expressed more IR than controls as previously reported. Pederson et al. (2000) Biochem. Biophys. Res. Commun. 276:162-168. Cathepsin B inhibitor (CA 074, 10 μM) and catepsin S inhibitor (CLIK 060, 2 μM) had no effect on either IR turnover or differentiation (FIGS. 2). […]

Cathepsin L, sequence (P07711 114-333, species assumed): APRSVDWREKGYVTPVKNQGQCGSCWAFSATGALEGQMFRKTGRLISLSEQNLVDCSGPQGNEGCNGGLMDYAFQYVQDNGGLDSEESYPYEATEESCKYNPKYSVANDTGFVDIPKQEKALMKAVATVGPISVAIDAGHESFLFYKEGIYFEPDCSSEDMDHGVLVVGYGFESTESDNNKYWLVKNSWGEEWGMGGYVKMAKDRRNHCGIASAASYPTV
T3 sequence (P10605 80-333 limits assumed): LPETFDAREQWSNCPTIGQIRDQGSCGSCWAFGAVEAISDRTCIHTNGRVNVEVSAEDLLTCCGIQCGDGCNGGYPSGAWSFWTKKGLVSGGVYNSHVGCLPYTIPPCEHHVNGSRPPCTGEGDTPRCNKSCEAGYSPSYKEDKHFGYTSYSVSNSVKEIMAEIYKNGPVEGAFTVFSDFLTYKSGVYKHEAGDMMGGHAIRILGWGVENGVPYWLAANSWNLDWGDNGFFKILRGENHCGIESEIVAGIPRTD
Cathepsin S, sequence (P25774 115-331, species assumed): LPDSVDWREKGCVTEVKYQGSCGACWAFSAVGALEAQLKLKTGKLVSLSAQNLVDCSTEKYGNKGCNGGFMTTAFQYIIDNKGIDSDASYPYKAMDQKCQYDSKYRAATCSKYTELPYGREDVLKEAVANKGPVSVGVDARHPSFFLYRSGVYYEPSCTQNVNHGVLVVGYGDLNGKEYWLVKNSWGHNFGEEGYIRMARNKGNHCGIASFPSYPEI
T4 sequence (P06797 114-334): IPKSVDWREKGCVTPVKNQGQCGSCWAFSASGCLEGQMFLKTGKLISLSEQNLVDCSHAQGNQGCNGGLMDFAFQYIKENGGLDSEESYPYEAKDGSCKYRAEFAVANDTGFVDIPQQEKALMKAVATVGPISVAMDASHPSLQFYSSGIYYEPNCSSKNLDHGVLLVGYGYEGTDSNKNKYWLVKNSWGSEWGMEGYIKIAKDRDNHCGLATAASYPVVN
Cathepsin C, sequence (P53634 25-463, species assumed): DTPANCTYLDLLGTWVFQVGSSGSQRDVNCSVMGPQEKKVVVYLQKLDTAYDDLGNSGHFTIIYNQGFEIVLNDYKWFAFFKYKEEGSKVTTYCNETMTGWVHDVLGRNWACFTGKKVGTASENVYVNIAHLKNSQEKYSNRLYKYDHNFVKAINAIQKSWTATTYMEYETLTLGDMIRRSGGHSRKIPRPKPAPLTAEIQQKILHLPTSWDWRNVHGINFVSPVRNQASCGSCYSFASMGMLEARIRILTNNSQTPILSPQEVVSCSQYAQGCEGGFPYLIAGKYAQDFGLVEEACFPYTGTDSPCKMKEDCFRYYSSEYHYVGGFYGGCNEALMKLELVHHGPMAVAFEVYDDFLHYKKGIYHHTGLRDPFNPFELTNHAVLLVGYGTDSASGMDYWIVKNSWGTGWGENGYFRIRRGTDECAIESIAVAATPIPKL

SMILES: CN(C)C(=O)[C@H](Cc1ccccc1)NC(=O)C1O[C@@H]1C(=O)N[C@@H](Cc1ccccc1)C(=O)N(C)C (stereo partly shown)
- % of Inhibition, Cathepsin S [1]: 25%
- % of Inhibition, Cathepsin B ([2]; at 1 × 10^−6 M): 0%
- % of Inhibition, Cathepsin C [3]: 0%
- % of Inhibition, Cathepsin K ([4]; at 1 × 10^−6 M): 0%
- % of Inhibition, Cathepsin L ([5]; at 1 × 10^−6 M): 100%

SMILES: CCOC(=O)[C@H]1N[C@@H]1C(=O)NC(CC(C)C)C(=O)COC(=O)c1ccccc1 (stereo partly shown)
- Papain: K2nd [6]: 1,533 M^−1Min^−1
- Cathepsin B: K2nd [2]: 1,607 M^−1Min^−1
- Cathepsin L: K2nd [5]: 16,261 M^−1Min^−1

SMILES: CC(C)CCNC(=O)[C@H](CC(C)C)NC(=O)[C@H]1O[C@@H]1C(=O)O (relative stereo) [trans-epoxysuccinyl-L-leucylamido-(3-methyl)butane]
- proteinuria [7]: significantly reduced

SMILES: O=C(CNC(=O)[C@H](Cc1ccccc1)NC(=O)OCc1ccccc1)NOC(=O)c1ccccc1
- pKi [6]: 8.30 to 8.70
- pKi [2]: 9.05 to 9.10
- pKi [4]: 7.80 to 7.92
- pKi [5]: 10.10 to 10.40

SMILES: CN(C)C(=O)[C@H](Cc1ccccc1)NC(=O)[C@H]1O[C@@H]1C(=O)NCCc1ccccn1 (relative stereo) [CLIK 148, L-(+)-(2S, 3S)-N-[2-(2′-pyridinyl)-1-ethyl]-Na-amino-(L-phenylalaninedimethylamide)-trans-epoxysuccinamide]
- cathepsin B activity (active site labeling) [8]: not
- inhibition of adipogenesis in 3T3-L1 cells [9]: inhibition of adipogenesis
- cathepsin L activity (active site labeling) [10]: completely inhibited
- accumulation of 50 kDa PPAR-γ [11]: blocking the accumulation
- levels of 95 kDa IR β subunit and its precursor [12]: increased levels
- accumulation of 50 kDa C/EBP-α [13]: blocking the accumulation
- cathepsin K activity (active site labeling) [14]: not
- inhibition of adipogenesis / differentiation [15]: complete inhibition; also recorded: completely blocked
- levels of IGF-IR β subunit and its precursor (the same as for IR) [16]: increased levels

Reference: patent US6620844B2, “Method for reducing blood insulin levels by reducing in vivo cathepsin L activity” (NewMillennium Pharmaceutical, Inc., priority 2001, dated 2003)
